In general, Ki refers to a measure of affinity in units of concentration, obtained from inhibition or displacement. A low value points to a stronger hold on the target.

Among the data in ChEMBL document CHEMBL1130958, “Templates for design of inhibitors for serine proteases: application of the program DOCK to the discovery of novel inhibitors for thrombin” (Bioorg Med Chem Lett, 1998) are Ki values, retold here.

The assay addresses Prothrombin (Homo sapiens, UniProt P00734). Put plainly: Dissociation constant was evaluated by competitive inhibition of alpha-thrombin using the method of Dixon enzyme assay.

The compound `c1ccc(CN2CCN(Cc3ccccc3)CCN(Cc3ccccc3)CC2)cc1` registered a Ki of 410 µM.
In the case of `O=C(/N=N/c1ccccc1)NNc1ccccc1`, the affinity, expressed as Ki, was 1.7 µM.
